In ChEMBL document CHEMBL1201862, “PubChem BioAssay data set” (2004):
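Exposure lasted 48 hours, with cells grown in 96-well plates and compounds tested at five concentrations. The concentration for 50% growth inhibition is given as GI50.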 Calls of active or inactive are those of the source. Cut-off read from the data, not from the text of the source: active = GI50 up to about 1.1 µM and inactive = higher.

How the values were obtained:
Assay in all cases: inhibition of tumour cell growth, NCI panel, 48 h
OVCAR-5 = tested on: OVCAR-5
LXFL 529 = tested on: LXFL 529
DMS-114 = tested on: DMS-114
SK-MEL-2 = tested on: SK-MEL-2
HOP-92 = tested on: HOP-92
NCI-H226 = tested on: NCI-H226
MOLT-4 = tested on: MOLT-4
EKVX = tested on: EKVX
NCI-H522 = tested on: NCI-H522
RPMI-8226 = tested on: RPMI-8226
OVCAR-4 = tested on: OVCAR-4
A549 = tested on: A549
SK-MEL-5 = tested on: SK-MEL-5
LOX IMVI = tested on: LOX IMVI
SF-539 = tested on: SF-539
NCI-H460 = tested on: NCI-H460
HCC 2998 = tested on: HCC 2998
SW-620 = tested on: SW-620
KM12 = tested on: KM12
TK-10 = tested on: TK-10
OVCAR-8 = tested on: OVCAR-8
RXF 393 = tested on: RXF 393
OVCAR-3 = tested on: OVCAR-3
SNB-75 = tested on: SNB-75
U-251 = tested on: U-251
M19-MEL = tested on: M19-MEL
HOP-18 = tested on: HOP-18
HT-29 = tested on: HT-29
IGROV-1 = tested on: IGROV-1
DLD-1 = tested on: DLD-1
M14 = tested on: M14
CAKI-1 = tested on: CAKI-1
UACC-257 = tested on: UACC-257
SNB-19 = tested on: SNB-19
Malme-3M = tested on: Malme-3M
SK-MEL-28 = tested on: SK-MEL-28
COLO 205 = tested on: COLO 205
UACC-62 = tested on: UACC-62
HL-60 = tested on: HL-60
A498 = tested on: A498
KM-20L2 = tested on: KM-20L2
SK-OV-3 = tested on: SK-OV-3
SF-268 = tested on: SF-268
UO-31 = tested on: UO-31
RXF 631 = tested on: RXF 631
786-0 = tested on: 786-0
HCT-15 = tested on: HCT-15
XF498 = tested on: XF498
HCT-116 = tested on: HCT-116
SNB-78 = tested on: SNB-78
ACHN = tested on: ACHN
HOP-62 = tested on: HOP-62
SF-295 = tested on: SF-295
DMS-273 = tested on: DMS-273
K562 = tested on: K562
CCRF-CEM = tested on: CCRF-CEM
NCI-H23 = tested on: NCI-H23
SN12C = tested on: SN12C
SR = tested on: SR

COc1ccc2c(c1)OC[C@@H]1c3cc(O)c(OCc4ccccc4)cc3O[C@H]21
GI50 (OVCAR-5): 66.5 µM (inactive) | GI50 (LXFL 529): 18.7 µM (inactive) | GI50 (DMS-114): 19.5 µM (inactive) | GI50 (SK-MEL-2): 17.3 µM (inactive) | GI50 (HOP-92): 14.8 µM (inactive) | GI50 (NCI-H226): 27.3 µM (inactive) | GI50 (MOLT-4): 29.5 µM (inactive) | GI50 (EKVX): 19.4 µM (inactive) | GI50 (NCI-H522): 13.5 µM (inactive) | GI50 (RPMI-8226): 10.2 µM (inactive) | GI50 (OVCAR-4): 16.6 µM (inactive) | GI50 (A549): 26.2 µM (inactive) | GI50 (SK-MEL-5): 13.1 µM (inactive) | GI50 (LOX IMVI): 30 µM (inactive) | GI50 (SF-539): 90.4 µM (inactive) | GI50 (NCI-H460): 17.3 µM (inactive) | GI50 (HCC 2998): 36.2 µM (inactive) | GI50 (SW-620): 29.6 µM (inactive) | GI50 (KM12): 30.2 µM (inactive) | GI50 (TK-10): 32.7 µM (inactive) | GI50 (OVCAR-8): 29.5 µM (inactive) | GI50 (RXF 393): 25.9 µM (inactive) | GI50 (OVCAR-3): 38 µM (inactive) | GI50 (SNB-75): 14.2 µM (inactive) | GI50 (U-251): 23.7 µM (inactive) | GI50 (M19-MEL): 27 µM (inactive) | GI50 (HOP-18): > 100 µM (inactive) | GI50 (HT-29): 34.2 µM (inactive) | GI50 (IGROV-1): 26.5 µM (inactive) | GI50 (DLD-1): 36.1 µM (inactive) | GI50 (M14): 27.9 µM (inactive) | GI50 (CAKI-1): 24.1 µM (inactive) | GI50 (UACC-257): 17.9 µM (inactive) | GI50 (SNB-19): 46.8 µM (inactive) | GI50 (Malme-3M): 28.1 µM (inactive) | GI50 (SK-MEL-28): 32.9 µM (inactive) | GI50 (COLO 205): 27.9 µM (inactive) | GI50 (UACC-62): 18.1 µM (inactive) | GI50 (HL-60): 16.8 µM (inactive) | GI50 (A498): 6.62 µM (inactive) | GI50 (KM-20L2): 33.9 µM (inactive) | GI50 (SK-OV-3): 17.3 µM (inactive) | GI50 (SF-268): 28.3 µM (inactive) | GI50 (UO-31): 20.1 µM (inactive) | GI50 (RXF 631): 45.2 µM (inactive) | GI50 (786-0): 37.3 µM (inactive) | GI50 (HCT-15): 22 µM | GI50 (XF498): 26.2 µM (inactive) | GI50 (HCT-116): 29.9 µM (inactive) | GI50 (SNB-78): 19.7 µM (inactive) | GI50 (ACHN): 22.9 µM (inactive) | GI50 (HOP-62): 48 µM (inactive) | GI50 (SF-295): 28.8 µM (inactive) | GI50 (DMS-273): 40.6 µM (inactive) | GI50 (K562): 31.8 µM (inactive) | GI50 (CCRF-CEM): 34.3 µM (inactive) | GI50 (NCI-H23): 16.4 µM (inactive)

O=C1OC(=O)c2c1c(-c1ccccc1)cn2-c1ccc(Cl)cc1
GI50 (OVCAR-5): > 100 µM (inactive) | GI50 (SN12C): > 100 µM (inactive) | GI50 (LXFL 529): 5.94 µM (inactive) | GI50 (DMS-114): 77.3 µM (inactive) | GI50 (SK-MEL-2): > 100 µM (inactive) | GI50 (HOP-92): > 100 µM (inactive) | GI50 (NCI-H226): > 100 µM (inactive) | GI50 (MOLT-4): 15 µM (inactive) | GI50 (EKVX): 41.1 µM (inactive) | GI50 (NCI-H522): 67.3 µM (inactive) | GI50 (RPMI-8226): 26.8 µM (inactive) | GI50 (A549): 83 µM (inactive) | GI50 (SK-MEL-5): 3.38 µM (inactive) | GI50 (LOX IMVI): 48.1 µM (inactive) | GI50 (SF-539): > 100 µM (inactive) | GI50 (NCI-H460): > 100 µM (inactive) | GI50 (HCC 2998): > 100 µM (inactive) | GI50 (SW-620): > 100 µM (inactive) | GI50 (KM12): 86.1 µM (inactive) | GI50 (TK-10): > 100 µM (inactive) | GI50 (OVCAR-8): > 100 µM (inactive) | GI50 (OVCAR-3): 54.7 µM (inactive) | GI50 (SNB-75): > 100 µM (inactive) | GI50 (U-251): 87.3 µM (inactive) | GI50 (M19-MEL): 21.1 µM (inactive) | GI50 (HOP-18): > 100 µM (inactive) | GI50 (HT-29): > 100 µM (inactive) | GI50 (IGROV-1): 24.7 µM (inactive) | GI50 (DLD-1): > 100 µM (inactive) | GI50 (M14): 8.28 µM (inactive) | GI50 (UACC-257): > 100 µM (inactive) | GI50 (SNB-19): > 100 µM (inactive) | GI50 (Malme-3M): > 100 µM (inactive) | GI50 (SK-MEL-28): > 100 µM (inactive) | GI50 (COLO 205): 10.6 µM (inactive) | GI50 (UACC-62): 1.64 µM (inactive) | GI50 (HL-60): 1.15 µM (inactive) | GI50 (KM-20L2): 22.1 µM (inactive) | GI50 (SK-OV-3): > 100 µM (inactive) | GI50 (SF-268): > 100 µM (inactive) | GI50 (UO-31): > 100 µM (inactive) | GI50 (RXF 631): > 100 µM (inactive) | GI50 (786-0): > 100 µM (inactive) | GI50 (HCT-15): 45.3 µM | GI50 (XF498): > 100 µM (inactive) | GI50 (HCT-116): > 100 µM (inactive) | GI50 (SNB-78): > 100 µM (inactive) | GI50 (ACHN): 37.2 µM (inactive) | GI50 (HOP-62): 14.6 µM (inactive) | GI50 (SF-295): > 100 µM (inactive) | GI50 (SR): > 100 µM (inactive) | GI50 (DMS-273): 8.77 µM (inactive) | GI50 (K562): 2.22 µM (inactive) | GI50 (CCRF-CEM): 35.6 µM (inactive) | GI50 (NCI-H23): > 100 µM (inactive)
